We go through 15 compounds from US5055459A, “Selective elimination of malignant cells from bone marrow by bis (acyloxy) propylphosphoramidates” (Board of Regents, The University of Texas, priority 1989, dated 1991).

In data set [1] the test system is L1210 lymphatic leukemia cells. Description: cells. The class given is cell-based, murine.
Data set [2] deals with L1210 leukemia cells. Briefly: cells. The note with it: Mus musculus. Format: cell-based, murine.
The test system of data set [3] is L1210 leukemia cells. Description: Growth inhibition of L1210 leukemia cells in vitro by nucleoside analogues (Table 7). The class given is cell-based, murine. The note with it: Mus musculus, growth inhibition by 50%, exposure 96 h, then 72 h drug-free culture. The procedure:
The effectiveness against growth of L1210 cells of 1 these nucleoside analogs was tested and the growth inhibition shown in Table 7.
^a Exponentially growing cells were exposed to varying drug
concentrations for 96 h at 37° C. The cells were then centrifuged,
resuspended, and cultured in drugfree medium for 72 h.
^b The drug concentration that inhibited cell growth by 50% compared
to untreated control cultures.

Data set [4] deals with cyclophosphamide-resistant L1210 and P-388 cell-lines. The following applies: cited from earlier work.
The next data set has as its system KBM-3/DOX. Description: cells. Format: cell-based, human. The note with it: human, kbm-3/dox cells.
In a further data set the test system is KBM-3/AMSA. Briefly: cells. Format: cell-based, human. The following applies: human, kbm-3/amsa cells.
Data set [5] concerns GM-CFC from normal human bone marrow.

SMILES strings stand for the structures. Values after ≈ are worked out from the molar mass of the structure shown. Like-named read-outs stand apart in the source and are kept apart here.

Turning to `CC(=O)OC(CCOP(=O)(NCCCl)NCCCl)OC(C)=O` [Compound 22-F, 0-(3,3-Diacetatopropyl)-N-(2-chloroethyl)-N-(2chloroethyl)phosphorodiamide], the “toxicity to L1210 cells, comparison in words” value in data set [1] is on record as “much more potent than ASTA Z 7557”. The IC50 in data set [1] (Mus musculus, L1210, 72 h, read-out: ED50) was found to be 1.7 µg/mL (≈ 4.48 µM).
Take `COc1cccc2c1C(=O)c1c(O)c3c(c(O)c1C2=O)C[C@@](O)(C(=O)CO)C[C@@H]3O[C@H]1C[C@H](NP(=O)(NCCCl)OCCC(OC(C)=O)OC(C)=O)[C@H](O)[C@H](C)O1` (stereo partly drawn) [Compound C-3]: the IC50 in the data set on L1210 leukemia cells [2] came out at 21 nM.
Still for that read-out and setting: the value for `COc1cccc2c1C(=O)c1c(O)c3c(c(O)c1C2=O)C[C@@](O)(C(C)=O)C[C@@H]3O[C@H]1C[C@H](NP(=O)(NCCCl)OCCC(OC(C)=O)OC(C)=O)[C@H](O)[C@H](C)O1` (stereo partly drawn) [Compound C-4] was 25 nM; that for `COc1cccc2c1C(=O)c1c(O)c3c(c(O)c1C2=O)C[C@@](O)(C(=O)CO)C[C@@H]3O[C@H]1C[C@H](NP(=O)(NCCCl)OCCC(OC(=O)C(C)(C)C)OC(=O)C(C)(C)C)[C@H](O)[C@H](C)O1` (stereo partly drawn) [Compound C-7] was 35 nM.
`COc1cccc2c1C(=O)c1c(O)c3c(c(O)c1C2=O)C[C@@](O)(C(C)=O)C[C@@H]3O[C@H]1C[C@H](NP(=O)(NCCCl)OCCC(OC(=O)C(C)(C)C)OC(=O)C(C)(C)C)[C@H](O)[C@H](C)O1` (stereo partly drawn) [Compound C-8] came in with an IC50 in the data set on L1210 leukemia cells [2] of 30 nM.
As for `CC(=O)OC(CCOP(N)(=O)OC[C@@H]1CC[C@H](n2ccc(=O)[nH]c2=O)O1)OC(C)=O` (stereo partly drawn) [Compound D-1], in the data set on L1210 leukemia cells [3], the IC50 was 1400 nM.
The same measure, in the same setting: the value for `CC(C)(C)C(=O)OC(CCOP(N)(=O)OC[C@@H]1CC[C@H](n2ccc(=O)[nH]c2=O)O1)OC(=O)C(C)(C)C` (stereo partly drawn) [Compound D-2] was 700 nM; that for `CC(=O)OC(CCOP(N)(=O)OC[C@@H]1CC[C@H](n2cc(C)c(=O)[nH]c2=O)O1)OC(C)=O` (stereo partly drawn) [Compound D-3] was 1300 nM; that for `Cc1cn([C@H]2CC[C@@H](COP(N)(=O)OCCC(OC(=O)C(C)(C)C)OC(=O)C(C)(C)C)O2)c(=O)[nH]c1=O` (stereo partly drawn) [Compound D-4] was 1600 nM.
In the case of `N#CN` [cyanamide], in data set [4], the “effect on cytotoxicity of 4-hydroperoxycyclophosphamide and ASTA Z 7557” value (shortened to “effect on cytotoxicity”) was “potentiate the cytotoxicity”.
Regarding `CCN(CC)C(=S)S` [diethyl dithiocarbamate], the “effect on cytotoxicity” value in data set [4] (cyclophosphamide-resistant L1210 and P-388) is “potentiate the cytotoxicity”.
`CCN(CC)C(=S)SSC(=S)N(CC)CC` [disulfiram]: in data set [4], the “effect on cytotoxicity” value is reported as “potentiate the cytotoxicity”; the “sensitization of resistant L1210 cell-line” value is recorded as “rendered drug-sensitive”.
With `COc1cccc2c1C(=O)c1c(O)c3c(c(O)c1C2=O)C[C@@](O)(C(=O)CO)C[C@@H]3O[C@H]1C[C@H](N)[C@H](O)[C@H](C)O1` [doxorubicin, reference compound], the “resistance of subline to doxorubicin” value in the data set with KBM-3/DOX is 100 fold.
For the compound `CCOP(=O)(CCC=O)c1ccccc1` (stereo not drawn) [ethylphenyl(2-formylethyl) phosphinate], in data set [4], the “effect on cytotoxicity” value is reported as “potentiate the cytotoxicity”.
For `COc1cc(NS(C)(=O)=O)ccc1Nc1c2ccccc2nc2ccccc12` [m-AMSA, 4'-(9-acridinylamino)-3-methanesulfon-m-amisidide, reference compound], in the data set with KBM-3/AMSA, the “resistance of subline to m-AMSA” value is on record as 130 fold. The “GM-CFC recovery kinetics / progenitor sparing, in words” value in data set [5] is “nonselective killing of mature (GM-CFC) and primitive (pluripotent) myeloid progenitor cells”.
